Test results published in ChEMBL document CHEMBL4334518, “Discovery and Pharmacological Studies of 4-Hydroxyphenyl-Derived Phosphonium Salts Active in a Mouse Model of Visceral Leishmaniasis” (J Med Chem, 2019).

Key:
Leishmania donovani [1] = assay: Antileishmanial activity against Leishmania donovani MHOM/ET/67/HU3 promastigote after 72 hrs by MTT assay; type: functional, organism-based; conditions: MHOM/ET/67/HU3, 72 h
Leishmania donovani [2] = assay: Antileishmanial activity against Leishmania donovani MHOM/ET/67/HU3 intracellular amastigotes infected in human THP1 cells after 96 hrs by prolong-gold antifade-reagent/DAPI staining based assay; type: functional, organism-based; conditions: MHOM/ET/67/HU3, THP-1, 96 h
[3] = Selectivity index, ratio of EC50 for cytotoxicity against human THP1 cells to EC50 for antileishmanial activity against Leishmania donovani MHOM/ET/67/HU3 amastigotes infected in human THP1 cells; type: toxicity, cell-based; conditions: read-out: Ratio EC50
THP-1 = assay: Cytotoxicity against human THP1 cells assessed as reduction in cell viability after 72 hrs by MTT assay; type: cell-based; conditions: THP-1, 72 h
Leishmania donovani [4] = assay: Potency index, ratio of amphotericin B EC50 to test compound EC50 for antileishmanial activity against Leishmania […] amastigote infected in THP1 cells; type: functional
Leishmania infantum [5] = assay: Antileishmanial activity against Sb 3 resistant Leishmania infantum LEM 3329 isolate promastigote after 72 hrs by MTT assay; type: functional, organism-based
Leishmania infantum [6] = assay: Antileishmanial activity against Leishmania infantum LEM 3049 isolate promastigote after 72 hrs by MTT assay; type: functional, organism-based
Leishmania infantum [7] = assay: Antileishmanial activity against MIL/paromomycin resistant Leishmania infantum LEM 2126 isolate promastigote after 72 hrs by MTT assay; type: functional, organism-based
Leishmania infantum [8] = assay: Antileishmanial activity against MIL resistant Leishmania infantum LEM 5159 isolate promastigote after 72 hrs by MTT assay; type: functional, organism-based
Leishmania infantum [9] = assay: Antileishmanial activity against Sb 3 resistant Leishmania infantum LEM 3329 isolate intracellular amastigotes infected in human THP1 cells after 96 hrs by prolong-gold antifade-reagent/DAPI staining based assay; type: functional, organism-based; conditions: THP-1, 96 h
Leishmania infantum [10] = assay: Antileishmanial activity against Leishmania infantum LEM 3049 isolate intracellular amastigotes infected in human THP1 cells after 96 hrs by prolong-gold antifade-reagent/DAPI staining based assay; type: functional, organism-based; conditions: THP-1, 96 h
Leishmania infantum [11] = assay: Antileishmanial activity against MIL/paromomycin resistant Leishmania infantum LEM 2126 isolate intracellular amastigotes infected in human THP1 cells after 96 hrs by prolong-gold antifade-reagent/DAPI staining based assay; type: functional, organism-based; conditions: THP-1, 96 h
Leishmania infantum [12] = assay: Antileishmanial activity against MIL resistant Leishmania infantum LEM 5159 isolate intracellular amastigotes infected in human THP1 cells after 96 hrs by prolong-gold antifade-reagent/DAPI staining based assay; type: functional, organism-based; conditions: THP-1, 96 h
[13] = Selectivity index, ratio of EC50 for cytotoxicity against human MRC5 cells to EC50 for antileishmanial activity against Leishmania donovani MHOM/ET/67/HU3 amastigotes infected in human THP1 cells; type: toxicity, cell-based; conditions: read-out: Ratio EC50

In the case of `CCCCCCCCCCCCCCCCOP(=O)([O-])OCC[N+](C)(C)C` [MILTEFOSINE], the EC50 (Leishmania donovani [1]) is reported as 6510 nM, the EC50 (Leishmania donovani [2]) is reported as 910 nM and the selectivity ratio [3] is reported as 28.8. For the same compound, the EC50 (THP-1) was 26200 nM.

`Cc1cc(O)ccc1C(=O)CCCCCCCCCCCCCCC[P+](c1ccccc1)(c1ccccc1)c1ccccn1.[Br-]` gave an EC50 (Leishmania donovani [1]) of 280 nM, an EC50 (Leishmania donovani [2]) of 100 nM and a selectivity ratio [3] of 21.1. The “Ratio EC50” value (Leishmania donovani [4]) was 2 and the EC50 (THP-1) was 2110 nM.

`O=Cc1ccc(OCCCCCCCCCCCCCC[P+](c2ccccc2)(c2ccccc2)c2ccccc2)cc1O` showed an EC50 (Leishmania donovani [2]) of less than 1000 nM and a selectivity ratio [3] of 2 to 27.

Compound `O=C(OCCCCCCCCCCCC[n+]1cccc2ccccc21)c1ccc(O)cc1O` has an EC50 (Leishmania donovani [1]) of less than 200 nM, an EC50 (Leishmania donovani [2]) of 800 nM and a selectivity ratio [3] of 3.7 to 5.

`OCCCCCCCCCCCCCC[P+](c1ccccc1)(c1ccccc1)c1ccccc1` showed an EC50 (Leishmania donovani [1]) of 330 nM, an EC50 (Leishmania donovani [2]) of 350 nM and a selectivity ratio [3] of 8.7. It also gave an EC50 (THP-1) of 3050 nM.

`C[C@@H]1[C@H](O)[C@@H](C)/C=C/C=C/C=C/C=C/C=C/C=C/C=C/[C@H](O[C@@H]2O[C@H](C)[C@@H](O)[C@H](N)[C@@H]2O)C[C@@H]2O[C@](O)(C[C@@H](O)C[C@@H](O)[C@H](O)CC[C@@H](O)C[C@@H](O)CC(=O)O[C@H]1C)C[C@H](O)[C@H]2C(=O)O` [AMPHOTERICIN B] gave an EC50 (Leishmania donovani [1]) of 130 nM, an EC50 (Leishmania donovani [2]) of 240 nM and an EC50 (Leishmania infantum [5]) of 70 nM. For the same compound, the EC50 (Leishmania infantum [6]) was 60 nM, the EC50 (Leishmania infantum [7]) was 100 nM and the EC50 (Leishmania infantum [8]) was 50 nM. It also gave an EC50 (Leishmania infantum [9]) of 180 nM, an EC50 (Leishmania infantum [10]) of 170 nM and a selectivity ratio [3] of 116. For the same compound, the EC50 (THP-1) was 27800 nM, the EC50 (Leishmania infantum [11]) was 160 nM and the EC50 (Leishmania infantum [12]) was 160 nM.

Work on `O=C(OCCCCCCCCCCCCCC[P+](c1ccccc1)(c1ccccc1)c1ccccc1)c1ccc(O)cc1O` yielded an EC50 (Leishmania donovani [1]) of 40 nM, an EC50 (Leishmania donovani [2]) of 110 nM and a selectivity ratio [3] of 27.6. It also gave an EC50 (THP-1) of 3020 nM.

With `Cc1cc(O)ccc1C(=O)CCCCCCCCCCCCCCC[P+](c1ccccc1)(c1ccccc1)c1ccccc1.[Br-]` the EC50 (Leishmania donovani [1]) was 90 nM, the EC50 (Leishmania donovani [2]) was 100 nM and the selectivity ratio [3] was 24.5. For the same compound, the “Ratio EC50” value (Leishmania donovani [4]) was 2 and the EC50 (THP-1) was 2450 nM.

Work on `Cc1cc(O)ccc1C(=O)OCCCCCCCCCCCCCC[P+](c1ccccc1)(c1ccccc1)c1ccccc1` yielded an EC50 (Leishmania donovani [1]) of 90 nM, an EC50 (Leishmania donovani [2]) of 150 nM and a selectivity ratio [3] of 12.3. It also gave an EC50 (THP-1) of 1840 nM.

`COC(=O)c1ccc(OCCCCCCCCCCCCCC[P+](c2ccccc2)(c2ccccc2)c2ccccc2)cc1C` gave an EC50 (Leishmania donovani [2]) of less than 1000 nM and a selectivity ratio [13] of 2 to 27.
